Results published in publication PMC7023239, “Evaluation of the Biodistribution of Serinolamide-Derivatized C60 Fullerene” (Nanomaterials, 2020).

Key:
[1] = PET/CT biodistribution in mice; type: in vivo, male nude mice
Procedure: PET and CT scans were performed using a small animal Albira PET/SPECT/CT scanner (Bruker Corporation, Billerica, MA, USA). PET images were analyzed using PMOD Version 3.505 (PMOD Technologies Ltd., Zürich, Switzerland). PET/CT maximum intensity projections were constructed using Inveon Research Workplace (Siemens Medical Solutions USA, Inc., Malvern, PA, USA). Statistical analysis was performed on GraphPad Prism 8 (GraphPad Software, San Diego, CA, USA).
PET Image Acquisition: All mice were manipulated in accordance to the MD Anderson Cancer Center’s IACUC guidelines. Mice were anesthetized with 2% isoflurane using oxygen as a carrier. For both C60-[^64Cu]Cu(NOTA) and [^64Cu]Cu(NOTA), 6 male nude mice were injected on the bed with ~200 μCi of activity in 150 μL of saline through a tail vein catheter. At the start of injection, a 20-min dynamic PET scan was acquired using the Albira PET/SPECT/CT scanner with a 15 cm field of view (FOV). The actual injected dose was calculated by measuring the pre- and post-injection activity in the syringe using a CRC-15R dose calibrator (Capintec, Inc., Florham Park, NJ, USA). The data were binned into 20-s time frames for the first 5 min, 60-s frames for the next 5 min, and 5-min frames for the next 10 min. Static PET images were then recorded at 3 h and 24 h post-injection (p.i.) for 10 min. A static PET image at 48 h p.i. was recorded for 20 min for C60-[^64Cu]Cu(NOTA) only. Following all PET scans, two 3 min CT scans were performed to cover the whole mouse body with a total FOV of 12.6 cm (400 μA, 45 kV, 250 projections).
The PET images were reconstructed using the Maximum Likelihood Expectation Maximization method with 12 iterations. The CT images were reconstructed using the Filtered Back Projection method. Scatter, randoms, decay, and attenuation corrections were applied through the Albira software. Volumes-of-interest (VOIs) were drawn for the major organs on the decay-corrected PET images using PMOD, and injected doses were used to calculate percent of injected dose per cubic centimeter of tissue (%ID/cc). […]

[2] = Two-phase decay model of heart TAC (blood pharmacokinetics); type: in vivo, male nude mice; details: mice, tail vein
Description: The PET images were reconstructed using the Maximum Likelihood Expectation Maximization method with 12 iterations. The CT images were reconstructed using the Filtered Back Projection method. Scatter, randoms, decay, and attenuation corrections were applied through the Albira software. Volumes-of-interest (VOIs) were drawn for the major organs on the decay-corrected PET images using PMOD, and injected doses were used to calculate percent of injected dose per cubic centimeter of tissue (%ID/cc). Errors in the averaged %ID/cc were reported as standard error of the mean (SEM). A non-linear regression analysis of the dynamic PET data for both C60-[^64Cu]Cu(NOTA) and [^64Cu]Cu(NOTA) was performed and fitted to a two-phase decay model to determine the blood half-life of each compound.
We also performed a non-linear regression analysis of the heart TAC data of both compounds using a two-phase decay model, which produced a p value of < 0.0001 by an extra sum-of-squares F test. The two-phase decay model consists of a distribution phase and an elimination phase. The fast distribution phase describes the rapid circulation of the material from the plasma to highly-perfused tissues, and the slow elimination phase describes the clearance of the material from the plasma and tissues through excretion. From this analysis, a blood half-life (t1/2) and rate constants (α, β) for each phase were determined along with the clearance rate (CL) and the area under the curve (AUC), which represents a normalized volume of distribution (Table 1).

period in which most of the material was cleared by renal excretion ([1]; PET): between 20 min and 3 h p.i. | uptake / detected signal at 48 h p.i. ([1]; PET static scan, 48 h p.i., any organ): negligible | uptake in the kidneys compared to other major organs ([1]; PET, 20 min p.i.): significant uptake | Area under Curve (AUC) [2]: 3.173 × 10^2 %ID·min/cc | Distribution Half-Life [2]: 0.4975 min | Distribution Rate Constant (α) [2]: 1.393 min⁻¹ | Elimination Half-Life [2]: 8.153 min | Elimination Rate Constant (β) [2]: 0.08501 min⁻¹
Structure (SMILES): O=C([O-])CN1CCN(CC(=O)[O-])CCN(CC(=O)O)CC1.[64Cu+2] [[^64Cu]Cu(NOTA)]
